Test results taken from patent US10287301B2 (Achillion Pharmaceuticals, Inc., priority 2015, dated 2019).
pIC50: −log10 of the molar value.

These compounds were tested against Human Factor D (Homo sapiens (Human), UniProt P00746) (assay: Human Factor D Assay). Settings: not given.
Format: biochemical
Outline: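 Thioester cleavage assay: human Factor D (serum-derived, 80 nM final), substrate Z-L-Lys-SBzl with DTNB, both 100 μM final, after 5 min compound preincubation at room temperature.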

Human Factor D, sequence (P00746 26-253): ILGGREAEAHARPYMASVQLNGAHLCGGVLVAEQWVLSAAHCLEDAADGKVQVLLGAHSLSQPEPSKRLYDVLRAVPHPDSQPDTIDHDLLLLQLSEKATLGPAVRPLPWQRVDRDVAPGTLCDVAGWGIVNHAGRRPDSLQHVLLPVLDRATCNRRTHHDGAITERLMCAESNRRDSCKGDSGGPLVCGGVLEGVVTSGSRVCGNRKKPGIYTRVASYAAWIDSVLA

Question: With CC(=O)c1nn(CC(=O)N2[C@@H]3CC[C@@H](C3)[C@H]2C(=O)Nc2cccc(Br)n2)c2ccc(-c3cnc(C)nc3)cc12 [Compound 491, (1R,3S,4S)-2-(2-(3-acetyl-5-(2-methylpyrimidin-5-yl)-1H-indazol-1-yl)acetyl)-N-(6-bromopyridin-2-yl)-2-azabicyclo[2.2.1] heptane-3-carboxamide] as the compound, how does the pIC50 read?
Answer: Its pIC50 is greater than 6.00.

Question: With Cc1cccc(NC(=O)[C@@H]2[C@H]3CC[C@H](C3)N2C(=O)Cn2cc(C(N)=O)c3cc(-c4ccc5cccnc5c4)ccc32)n1 [Compound 499, 1-(2-((1R,3S,4S)-3-(6-Methylpyridin-2-ylcarbamoyl)-2-azabicyclo[2.2.1]heptan-2-yl)-2-oxoethyl)-5-(quinolin-7-yl)-1H-indole-3-carboxamide] as the compound, how does the pIC50 read?
Answer: The pIC50 was 5.00 to 6.00.

Question: Cc1cccc(NC(=O)[C@@H]2[C@H]3CC[C@H](C3)N2C(=O)Cn2cc(C(N)=O)c3cc(-c4ccc(F)nc4)ccc32)n1 [Compound 500, 5-(6-Fluoropyridin-3-yl)-1-(2-((1R,3S,4S)-3-(6-methylpyridin-2-ylcarbamoyl)-2-azabicyclo[2.2.1]heptan-2-yl)-2-oxoethyl)-1H-indole-3-carboxamide] was tested. Which pIC50 did it give?
Answer: Its pIC50 is less than 5.00.

Same assay, conditions: Table 3; Human Factor D 80 nM, substrate Z-L-Lys-SBzl; read-out: IC50 (Stars)

Question: How did the pIC50 turn out when CC(=O)c1nn(CC(=O)N2C[C@H](F)C[C@H]2C(=O)NCc2cccc(Br)n2)c2ccc(-c3cnc(C)nc3)cc12 [Compound 483, (2S,4R)-1-(2-(3-Acetyl-5-(2-methylpyrimidin-5-yl)-1H-indazol-1-yl)acetyl)-N-((6-bromopyridin-2-yl)methyl)-4-fluoropyrrolidine-2-carboxamide] was run?
Answer: The pIC50 was greater than 6.00.

Question: With COc1cc(Br)nc(NC(=O)[C@@H]2C[C@@]3(C)C[C@H]3N2C(=O)Cn2nc(C(C)=O)c3cc(-c4cnc(C)nc4)ccc32)c1 [Compound 484, (1R,3S,5R)-2-(2-(3-Acetyl-5-(2-methylpyrimidin-5-yl)-1H-indazol-1-yl)acetyl)-N-(6-bromo-4-methoxypyridin-2-yl)-5-methyl-2-azabicyclo[3.1.0]hexane-3-carboxamide] as the compound, how does the pIC50 read?
Answer: Its pIC50 is greater than 6.00.

Question: How did the pIC50 turn out when CC(=O)c1nn(CC(=O)N2[C@H](C(=O)Nc3nc(Br)ccc3C)C[C@@]3(C)C[C@@H]23)c2ccc(-c3cnc(C)nc3)cc12 [Compound 485, (1R,3S,5R)-2-(2-(3-Acetyl-5-(2-methylpyrimidin-5-yl)-1H-indazol-1-yl)acetyl)-N-(6-bromo-3-methylpyridin-2-yl)-5-methyl-2-azabicyclo[3.1.0]hexane-3-carboxamide] was run?
Answer: The pIC50 was greater than 6.00.

Question: COc1ncc(-c2ccc3c(c2)c(C(C)=O)nn3CC(=O)N2[C@H](C(=O)Nc3cncc(Br)n3)C[C@@]3(C)C[C@@H]23)cn1 [Compound 486] was tested. Which pIC50 did it give?
Answer: The pIC50 was greater than 6.00.

Question: With CC(=O)c1nn(CC(=O)N2C[C@H]3C[C@H]3[C@H]2C(=O)Nc2nc(Br)ccc2C)c2ccc(-c3cnc(C)nc3)cc12 [Compound 488, (1R,2S,5S)-3-(2-(3-Acetyl-5-(2-methylpyrimidin-5-yl)-1H-indazol-1-yl)acetyl)-N-(6-bromo-3-methylpyridin-2-yl)-3-azabicyclo[3.1.0]hexane-2-carboxamide] as the compound, how does the pIC50 read?
Answer: Its pIC50 is greater than 6.00.

Question: Cc1cccc(NC(=O)[C@@H]2[C@H]3CC[C@H](C3)N2C(=O)Cn2cc(C(N)=O)c3cc(-c4ccc5ccccc5c4)ccc32)n1 [Compound 489, 1-(2-((1R,3S,4S)-3-((6-Methylpyridin-2-yl)carbamoyl)-2-azabicyclo[2.2.1]heptan-2-yl)-2-oxoethyl)-5-(naphthalen-2-yl)-1H-indole-3-carboxamide] was tested. Which pIC50 did it give?
Answer: Its pIC50 is less than 5.00.

Question: How did the pIC50 turn out when Cc1cccc(NC(=O)[C@@H]2[C@H]3CC[C@H](C3)N2C(=O)Cn2cc(C(N)=O)c3cc(-c4cccc(C#N)c4)ccc32)n1 [Compound 497, 5-(3-Cyanophenyl)-1-(2-((1R,3S,4S)-3-(6-methylpyridin-2-ylcarbamoyl)-2-azabicyclo[2.2.1]heptan-2-yl)-2-oxoethyl)-1H-indole-3-carboxamide] was run?
Answer: Its pIC50 is less than 5.00.

Question: Cc1cccc(NC(=O)[C@@H]2[C@H]3CC[C@H](C3)N2C(=O)Cn2cc(C(N)=O)c3cc(-c4ccc(N)nc4)ccc32)n1 [Compound 498, 5-(6-Aminopyridin-3-yl)-1-(2-((1R,3S,4S)-3-(6-methylpyridin-2-ylcarbamoyl)-2-azabicyclo[2.2.1]heptan-2-yl)-2-oxoethyl)-1H-indole-3-carboxamide] was tested. Which pIC50 did it give?
Answer: The pIC50 was less than 5.00.

Question: Cc1cccc(NC(=O)[C@@H]2[C@H]3CC[C@H](C3)N2C(=O)Cn2cc(C(N)=O)c3cc(-c4cccnc4)ccc32)n1 [Compound 501, 1-(2-((1R,3S,4S)-3-(6-Methylpyridin-2-ylcarbamoyl)-2-azabicyclo[2.2.1]heptan-2-yl)-2-oxoethyl)-5-(pyridin-3-yl)-1H-indole-3-carboxamide] was tested. Which pIC50 did it give?
Answer: Its pIC50 is less than 5.00.

Question: How did the pIC50 turn out when CC(=O)c1nn(CC(=O)N2C[C@H](F)C[C@H]2C(=O)NC/C(F)=C(/C)c2cccc(Cl)c2)c2ccc(-c3cnc(C)nc3)cc12 [Compound 503, (2S,4R)-1-(2-(3-acetyl-5-(2-methylpyrimidin-5-yl)-1H-indazol-1-yl)acetyl)-N-((E)-3-(3-chlorophenyl)-2-fluorobut-2-en-1-yl)-4-fluoropyrrolidine-2-carboxamide] was run?
Answer: The pIC50 was greater than 6.00.

Question: CC(=O)c1nn(CC(=O)N2C[C@H](F)C[C@H]2C(=O)Nc2cccc(Br)n2)c2ccc(-c3ccc4ncncc4c3)cc12 [Compound 504, (2S,4R)-1-(2-(3-Acetyl-5-(quinazolin-6-yl)-1H-indazol-1-yl)acetyl)-N-(6-bromopyridin-2-yl)-4-fluoropyrrolidine-2-carboxamide] was tested. Which pIC50 did it give?
Answer: Its pIC50 is greater than 6.00.

Question: CC(=O)c1nn(CC(=O)N2C[C@H](F)C[C@H]2C(=O)Nc2cccc(Br)n2)c2ccc(-c3cnc(OCC(F)(F)F)nc3)cc12 [Compound 505, (2S,4R)-1-(2-(3-Acetyl-5-(2-(S2,2,2-trifluoroethoxy)pyrimidin-5-yl)-1H-indazol-1-yl)acetyl)-N-(6-bromopyridin-2-yl)-4-fluoropyrrolidine-2-carboxamide] was tested. Which pIC50 did it give?
Answer: The pIC50 was greater than 6.00.

Question: With CC(=O)c1nn(CC(=O)N2[C@@H]3C[C@@H]3C[C@H]2C(=O)NC/C(F)=C(/C)c2cccc(Cl)c2)c2ccc(-c3cnc(C)nc3)cc12 [Compound 506, (1R,3S,5R)-2-(2-(3-Acetyl-5-(2-methylpyrimidin-5-yl)-1H-indazol-1-yl)acetyl)-N-((E)-3-(3-chlorophenyl)-2-fluorobut-2-en-1-yl)-2-azabicyclo[3.1.0]hexane-3-carboxamide] as the compound, how does the pIC50 read?
Answer: Its pIC50 is greater than 6.00.

Question: CC(=O)c1nn(CC(=O)N2C[C@H](F)C[C@H]2C(=O)Nc2cccc(Cl)c2)c2ccc(-c3cnc(C)nc3)cc12 [Compound 508, (2S,4R)-1-(2-(3-Acetyl-5-(2-methylpyrimidin-5-yl)-1H-indazol-1-yl)acetyl)-N-(3-chlorophenyl)-4-fluoropyrrolidine-2-carboxamide] was tested. Which pIC50 did it give?
Answer: The pIC50 was greater than 6.00.

Question: CC(=O)c1nn(CC(=O)N2C[C@H](F)C[C@H]2C(=O)Nc2ccc(F)c(Br)c2)c2ccc(-c3cnc(C)nc3)cc12 [Compound 509, (2S,4R)-1-(2-(3-Acetyl-5-(2-methylpyrimidin-5-yl)-1H-indazol-1-yl)acetyl)-N-(3-bromo-4-fluorophenyl)-4-fluoropyrrolidine-2-carboxamide] was tested. Which pIC50 did it give?
Answer: Its pIC50 is greater than 6.00.

Question: How did the pIC50 turn out when CC(=O)c1nn(CC(=O)N2C[C@@](F)(CF)C[C@H]2C(=O)Nc2nc(Br)ccc2C)c2ccc(-c3cnc(C)nc3)cc12 [Compound 511, (2S,4R)-1-(2-(3-Acetyl-5-(2-methylpyrimidin-5-yl)-1H-indazol-1-yl)acetyl)-N-(6-bromo-3-methylpyridin-2-yl)-4-fluoro-4-(fluoromethyl)pyrrolidine-2-carboxamide] was run?
Answer: Its pIC50 is greater than 6.00.
